Data set [1] is described as follows: Solubility of the compound. In kind it is physicochemical.
Data set [2] is described as follows: Lipophilicity, log D of the compound. Particulars: octanol/water. In kind it is physicochemical.
A further data set addresses T1, Hexokinase-4 (Homo sapiens, UniProt P35557).
T1 sequence (P35557 whole entry): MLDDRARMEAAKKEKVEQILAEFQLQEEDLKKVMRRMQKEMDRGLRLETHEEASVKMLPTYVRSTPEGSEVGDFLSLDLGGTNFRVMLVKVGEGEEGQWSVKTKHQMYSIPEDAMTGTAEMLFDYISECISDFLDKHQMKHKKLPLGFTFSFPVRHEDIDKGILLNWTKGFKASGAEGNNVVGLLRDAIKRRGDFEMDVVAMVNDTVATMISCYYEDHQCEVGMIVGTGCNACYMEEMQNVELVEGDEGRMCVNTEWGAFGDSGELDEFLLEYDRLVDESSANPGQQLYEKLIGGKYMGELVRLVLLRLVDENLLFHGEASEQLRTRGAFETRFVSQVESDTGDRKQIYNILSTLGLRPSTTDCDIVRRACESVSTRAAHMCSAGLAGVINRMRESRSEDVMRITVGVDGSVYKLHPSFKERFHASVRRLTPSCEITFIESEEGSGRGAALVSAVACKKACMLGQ
As to the kind of experiment: Activation of glucokinase (unknown origin).

The target in data set [3] is T2, Retinoic acid receptor beta (Homo sapiens, UniProt P10826).
T2 sequence (P10826 whole entry): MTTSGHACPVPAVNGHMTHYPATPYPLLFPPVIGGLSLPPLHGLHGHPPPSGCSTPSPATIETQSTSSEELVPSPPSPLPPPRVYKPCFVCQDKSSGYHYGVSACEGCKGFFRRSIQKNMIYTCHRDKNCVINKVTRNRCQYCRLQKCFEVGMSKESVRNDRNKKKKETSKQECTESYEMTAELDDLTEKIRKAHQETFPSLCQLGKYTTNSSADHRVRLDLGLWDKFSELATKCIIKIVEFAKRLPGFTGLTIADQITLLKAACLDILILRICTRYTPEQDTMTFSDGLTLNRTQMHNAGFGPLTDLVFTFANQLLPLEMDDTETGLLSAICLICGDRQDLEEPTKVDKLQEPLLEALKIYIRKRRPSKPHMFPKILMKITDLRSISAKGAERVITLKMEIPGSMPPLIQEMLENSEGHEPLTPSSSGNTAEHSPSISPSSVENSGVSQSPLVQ
As to the kind of experiment: Inhibition of RAR beta (unknown origin).

Data set [4] addresses T3, Retinoic acid receptor alpha (Homo sapiens, UniProt P10276).
T3 sequence (P10276 whole entry): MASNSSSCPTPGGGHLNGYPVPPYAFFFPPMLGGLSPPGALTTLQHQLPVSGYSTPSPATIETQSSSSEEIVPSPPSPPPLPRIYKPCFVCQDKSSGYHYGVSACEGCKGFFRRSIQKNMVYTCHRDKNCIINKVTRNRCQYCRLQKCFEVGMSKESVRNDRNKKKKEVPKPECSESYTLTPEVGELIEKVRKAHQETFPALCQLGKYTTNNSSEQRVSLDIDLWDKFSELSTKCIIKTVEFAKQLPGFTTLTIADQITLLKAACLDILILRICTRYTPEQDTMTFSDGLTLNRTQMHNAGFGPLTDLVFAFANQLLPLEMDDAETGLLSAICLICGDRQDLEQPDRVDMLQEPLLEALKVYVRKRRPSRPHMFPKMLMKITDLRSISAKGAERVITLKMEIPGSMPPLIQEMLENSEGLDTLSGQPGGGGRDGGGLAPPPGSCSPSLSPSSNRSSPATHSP
As to the kind of experiment: Inhibition of RAR alpha (unknown origin).

The target of data set [5] is T4, Retinoic acid receptor gamma (Homo sapiens, UniProt P13631).
T4 sequence (P13631 whole entry): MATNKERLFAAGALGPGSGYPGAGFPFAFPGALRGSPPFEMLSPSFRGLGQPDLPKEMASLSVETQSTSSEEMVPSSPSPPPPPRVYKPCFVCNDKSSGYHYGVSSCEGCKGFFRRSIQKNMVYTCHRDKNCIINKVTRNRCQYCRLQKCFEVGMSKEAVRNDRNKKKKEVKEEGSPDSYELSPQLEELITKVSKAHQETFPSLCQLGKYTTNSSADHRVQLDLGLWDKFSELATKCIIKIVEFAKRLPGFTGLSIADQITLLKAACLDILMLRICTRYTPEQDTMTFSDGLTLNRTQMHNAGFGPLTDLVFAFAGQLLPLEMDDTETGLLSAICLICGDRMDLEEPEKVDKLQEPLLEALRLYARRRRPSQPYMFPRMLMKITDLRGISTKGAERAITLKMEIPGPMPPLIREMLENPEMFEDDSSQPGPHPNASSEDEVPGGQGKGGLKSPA
As to the kind of experiment: Inhibition of RAR gamma (unknown origin).

Data set [6] is described as follows: Toxicity in testis (unknown origin). It counts as tissue-based.
A short description of data set [7]: Apparent permeability from apical to basolateral side of human Caco2 cells. In kind it is ADME, cell-based. The conditions noted are these: Caco-2.
Data set [8] has as its system Rattus norvegicus. As to the kind of experiment: Antidiabetic activity in rat assessed as reduction of glucose AUC at 10 mg/kg by oral glucose tolerance test. In kind it is functional.
The test system of data set [9] is Rattus norvegicus. As to the kind of experiment: Antidiabetic activity in rat assessed as reduction of glucose AUC at 3 mg/kg by oral glucose tolerance test. It counts as functional.
Data set [10] deals with Voltage-gated inwardly rectifying potassium channel KCNH2 (Homo sapiens, UniProt Q12809).

Values after ≈ are worked out from the molar mass of the structure shown.

Chain of Voltage-gated inwardly rectifying potassium channel KCNH2 (Q12809 whole entry): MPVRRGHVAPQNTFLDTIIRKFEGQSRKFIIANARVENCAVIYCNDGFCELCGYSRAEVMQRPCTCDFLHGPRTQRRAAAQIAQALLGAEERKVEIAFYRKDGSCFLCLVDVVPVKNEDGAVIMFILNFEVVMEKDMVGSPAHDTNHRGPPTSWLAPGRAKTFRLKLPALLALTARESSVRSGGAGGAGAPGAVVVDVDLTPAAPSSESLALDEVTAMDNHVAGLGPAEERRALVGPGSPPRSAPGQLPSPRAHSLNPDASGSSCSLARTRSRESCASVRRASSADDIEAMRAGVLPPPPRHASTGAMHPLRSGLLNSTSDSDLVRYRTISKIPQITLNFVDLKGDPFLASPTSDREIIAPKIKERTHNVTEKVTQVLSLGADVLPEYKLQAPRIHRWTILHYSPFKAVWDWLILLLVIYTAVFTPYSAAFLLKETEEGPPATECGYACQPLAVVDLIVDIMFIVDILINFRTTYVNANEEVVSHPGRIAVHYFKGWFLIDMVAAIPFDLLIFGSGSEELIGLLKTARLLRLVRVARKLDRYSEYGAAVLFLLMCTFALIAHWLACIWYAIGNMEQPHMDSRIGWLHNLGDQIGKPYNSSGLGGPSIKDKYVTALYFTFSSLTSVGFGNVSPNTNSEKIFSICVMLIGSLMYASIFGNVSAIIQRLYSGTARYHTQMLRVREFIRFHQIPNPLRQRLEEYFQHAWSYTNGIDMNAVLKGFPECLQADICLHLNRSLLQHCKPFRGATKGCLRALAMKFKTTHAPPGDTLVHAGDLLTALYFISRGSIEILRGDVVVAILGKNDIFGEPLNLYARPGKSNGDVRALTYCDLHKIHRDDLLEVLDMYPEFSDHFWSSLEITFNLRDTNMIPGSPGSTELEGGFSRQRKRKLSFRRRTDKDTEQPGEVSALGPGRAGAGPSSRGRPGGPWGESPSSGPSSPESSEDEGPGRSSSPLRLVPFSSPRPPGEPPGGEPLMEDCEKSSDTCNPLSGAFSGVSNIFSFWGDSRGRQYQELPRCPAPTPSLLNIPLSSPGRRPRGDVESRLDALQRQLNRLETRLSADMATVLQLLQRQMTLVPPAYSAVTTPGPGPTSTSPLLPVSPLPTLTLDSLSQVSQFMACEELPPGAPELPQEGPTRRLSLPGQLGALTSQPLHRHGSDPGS

As for `COC[C@H](C)Oc1cc(Oc2cc(F)cc(F)c2)cc(C(=O)Nc2nccs2)c1`, in data set [1], the solubility – broadly, the concentration that dissolves in the medium under given conditions – is < 0.7 µM. For the same compound, in data set [2], the log distribution coefficient (logD) – broadly, the decadic logarithm of the distribution of all forms, ionised or not, between an organic phase and buffer at a given pH – was found to be 4.1. The EC50 (commonly the concentration needed to bring the measured effect to its halfway point) on Hexokinase-4 was 0.07 µM.

As to `CC(C)COc1cc(OC(C)C)cc(C(=O)Nc2ccc(C(=O)O)cn2)c1`, the values for the IC50 in data set [3], in [4] and in data set [5] were 0.135 µM, 0.01 µM and 22 µM, respectively. In addition, the Activity result in [6] was “Toxic”.

Take `COC[C@H](C)Oc1cc(Oc2ccc(S(C)(=O)=O)cc2)cc(C(=O)Nc2ccc(C(=O)O)cn2)c1`: the Papp A→B (commonly how fast a substance crosses the layer from the apical side) in [7] worked out at 3 nm/s. Moreover, the solubility in data set [1] was > 3000 µM. In [2], the logD is -0.4.

For the compound `COC[C@H](C)Oc1cc(Oc2cc(F)cc(F)c2)cc(C(=O)Nc2ccc(C(=O)O)cn2)c1`, the Papp A→B in data set [7] came to 74 nm/s. Moreover, the IC50 (in general, the concentration that inhibits the measured activity by half) in [3] is < 0.001 µM; in data set [4], < 0.001 µM; in data set [5], 19 µM. The compound further displayed a solubility in [1] of 805 µM (≈ 369 µg/mL). Moreover, the logD in data set [2] was found to be 1.4. Also, the Activity result in data set [6] was “Toxic”.

For `COC[C@H](C)Oc1cc(O[C@@H](C)Cc2ccccc2)cc(C(=O)Nc2ccc(C(=O)O)cn2)c1`, the IC50 in data set [3] is 32 µM; in [4], 0.47 µM; in [5], > 1000 µM. In addition, the Activity result in data set [6] is “Toxic”.

As for `COC[C@H](C)Oc1cc(Oc2ccc(S(C)(=O)=O)cc2)cc(C(=O)Nc2nccs2)c1`, the inhibition in vivo (in general, how much of the control response was suppressed) at 10 mg/kg with Rattus norvegicus [8] was determined as 29%. Also, the Papp A→B in data set [7] stood at 540 nm/s. In data set [1], this compound displayed a solubility of 20 µM (≈ 9.25 µg/mL). Further, in data set [4], the IC50 was > 30 µM. In data set [2], this compound showed a logD of 3.2. A half-maximal response at Hexokinase-4 (EC50) required 0.06 µM. Also, the Activity entry in data set [6] is “Non-toxic”.

Turning to `COC[C@H](C)Oc1cc(Oc2ccc(S(C)(=O)=O)cc2)cc(C(=O)Nc2nc(C)ns2)c1`, the Papp A→B in data set [7] is 290 nm/s. For the same compound, the solubility in data set [1] worked out at 129 µM (≈ 61.6 µg/mL). For the same compound, the inhibition in vivo at 3 mg/kg with Rattus norvegicus [9] amounted to 27%. Further, the results for the IC50 in [4] and in [10] were > 30 µM and 7.5 µM, respectively. This compound also showed a logD in data set [2] of 2.9. On Hexokinase-4, the response was half-maximal at 0.11 µM (EC50). Besides, in data set [6], the Activity entry is listed as “Non-toxic”.

Take `O=C(O)c1ccc(NC(=O)c2cc(OCc3ccccc3F)cc(OCc3ccccc3F)c2)nc1`: the results for the IC50 in [3], in [4] and in [5] were 0.007 µM, 0.0111 µM and 1.2 µM, respectively. The Activity entry in [6] is on record as “Toxic”.

The values are drawn from ChEMBL document CHEMBL3217479, “Overcoming retinoic acid receptor- based testicular toxicity in the optimisation of glucokinase activators” (Medchemcomm, 2011).
